According to patent US9670206B2, “Pyrido[4,3-B]pyrazine-2-carboxamides as neurogenic agents for the treatment of neurodegenerative disorders” (Hoffmann-La Roche Inc., priority 2013, dated 2017):

test system: human embryonic stem cell derived neural stem cells (NSCs); assay: Neural stem cell proliferation assay (neurogenesis assay, ATP levels by CellTiterGlo); type: cell-based; conditions: 96 h, compound concentration at which 150% activity of control (100%) is reached, NSC proliferation, ATP readout after 4 days incubation
Description: Neural Stem Cell Proliferation Assay
Neurogenic properties of small molecules are determined based on the proliferation of human embryonic stem cell derived neural stem cells (NSCs) which were derived via a dual smad inhibition as previously described (Chambers, S. M., et al., Highly efficient neural conversion of human ES and iPS cells by dual inhibition of SMAD signaling, Nature biotechnology, 2009. 27(3): p. 275-80.) Compounds respond is measured by the increase in cells based on ATP levels (Promega:CellTiterGlo®) after an incubation period of 4 days. NSCs are thawed and expanded over 3 passages. On the 14th day, NSCs are seeded in Polyornithin/Laminin coated 384 well plates at a cell density of 21,000 cells/cm^2 in a media volume of 38 μl. 4 hours after cell seeding, compound solutions are added at a volume of 2 μl. Stock solutions of the compounds (water, 5% DMSO) are diluted to obtain a dose response (11 points, dilution factor is 2), ranging from 8 μM to 8 nM. Controls are run to consistently determine the neurogenic properties of the cells: Negative (neutral) control is cell culture Media (final DMSO concentration: 0.25%). Positive controls are: • 1. cell culture Media+100 ng/ml FGF2 (final DMSO concentration: 0.1%) • 2. cell culture Media+20 ng/ml EGF (final DMSO concentration: 0.1%) • 3. cell culture Media+100 ng/ml Wnt3a (final DMSO concentration: 0.1%) After 4 days incubation at 37° C., 5% CO2, the amount of ATP per well is quantified. The ATP concentration is proportional to the cell number. ATP is quantified by using the Promega CellTiterGlo® kit. The CellTiterGlo® reagents contain a cell lysis buffer, a thermo stable luciferase (UltraGlo™ recombinant luciferase), magnesium and luciferin. Luciferin reacts with ATP producing oxyluciferin, AMP and light. The luminescence signal is proportional to the ATP content. The value of negative (neutral) control is determined for each assay plate by taking the average of 16 negative control wells. The neurogenic compound response is calculated for each compound as (compound/Negative Control)*100. The values of EC150 from the dose response curve are determined for each test compound. The EC150 is the compound concentration at which 150% activity of control (100%) is reached.

Row | Compound | EC (150% of control) [µM]
1 | NC(=O)c1cnc2cncc(-c3ccc(C(F)(F)F)cc3)c2n1 [Example 2, 8-(4-(Trifluoromethyl)phenyl)pyrido[4,3-b]pyrazine-2-carboxamide] | 0.3
2 | Cc1cccc(-c2cncc3ncc(C(=O)NC(C)C(C)(C)O)nc23)n1 (stereo not drawn) [Example 53, N-(3-Hydroxy-3-methylbutan-2-yl)-8-(6-methylpyridin-2-yl)pyrido[4,3-b]pyrazine-2-carboxamide] | 0.5
3 | NC(=O)c1cnc2cncc(-c3ccc(C(F)(F)F)c(F)c3)c2n1 [Example 24, 8-(3-Fluoro-4-(trifluoromethyl)phenyl)pyrido[4,3-b]pyrazine-2-carboxamide] | 0.18
4 | NC(=O)c1cnc2cncc(-c3cccc(OC(F)(F)F)c3)c2n1 [Example 21, 8-(3-(Trifluoromethoxy)phenyl)pyrido[4,3-b]pyrazine-2-carboxamide] | 0.21
5 | O=C(c1cnc2cncc(-c3ccc(Cl)cc3)c2n1)N1CCS(=O)(=O)CC1 [Example 32, [8-(4-Chlorophenyl)pyrido[3,4-b]pyrazin-2-yl]-(1,1-dioxo-1,4-thiazinan-4-yl)methanone] | 0.84
6 | CC(NC(=O)c1cnc2cncc(-c3ccnn3C)c2n1)C(C)(C)O (stereo not drawn) [Example 49, N-(3-Hydroxy-3-methylbutan-2-yl)-8-(1-methyl-1H-pyrazol-5-yl)pyrido[4,3-b]pyrazine-2-carboxamide] | 0.02
7 | O=C(NCc1ccccc1)c1cnc2cncc(-c3ccc(Cl)cc3)c2n1 [Example 12, N-Benzyl-8-(4-chlorophenyl)pyrido[4,3-b]pyrazine-2-carboxamide] | 0.26
8 | Cn1nccc1-c1cncc2ncc(C(N)=O)nc12 [Example 50, 8-(1-Methyl-1H-pyrazol-5-yl)pyrido[4,3-b]pyrazine-2-carboxamide] | 0.02
9 | NC(=O)c1cnc2cncc(-c3ccc(Cl)cc3Cl)c2n1 [Example 13, 8-(2,4-Dichlorophenyl)pyrido[4,3-b]pyrazine-2-carboxamide] | 0.28
10 | O=C(c1cnc2cncc(Br)c2n1)N1CCOCC1 [Example 4, (8-Bromopyrido[4,3-b]pyrazin-2-yl)(morpholino)methanone] | 0.07
11 | NC(=O)c1cnc2cncc(-c3ccc(CO)cc3)c2n1 [Example 29, 8-(4-(Hydroxymethyl)phenyl)pyrido[4,3-b]pyrazine-2-carboxamide] | 0.05
12 | O=C(c1cnc2cncc(-c3ccc(CO)cc3)c2n1)N1CCC(O)C1 (stereo not drawn) [Example 48, (8-(4-(Hydroxymethyl)phenyl)pyrido[4,3-b]pyrazin-2-yl)(3-hydroxypyrrolidin-1-yl)methanone] | 0.67
13 | NC(=O)c1cnc2cncc(-c3ccc(Cl)cc3F)c2n1 [Example 22, 8-(4-Chloro-2-fluorophenyl)pyrido[4,3-b]pyrazine-2-carboxamide] | 0.07
14 | CC(NC(=O)c1cnc2cncc(-c3ccc(Cl)c(F)c3)c2n1)C(C)(C)O (stereo not drawn) [Example 46, 8-(4-Chloro-3-fluorophenyl)-N-(3-hydroxy-3-methylbutan-2-yl)pyrido[4,3-b]pyrazine-2-carboxamide] | 0.29
15 | N#CC1(NC(=O)c2cnc3cncc(-c4ccc(C(F)(F)F)cc4)c3n2)CC1 [Example 8, N-(1-Cyanocyclopropyl)-8-(4-(trifluoromethyl)phenyl)pyrido[4,3-b]pyrazine-2-carboxamide] | 0.39
16 | NC(=O)c1cnc2cncc(-c3ccc(F)cc3)c2n1 [Example 14, 8-(4-Fluorophenyl)pyrido[4,3-b]pyrazine-2-carboxamide] | 0.1
17 | CC(NC(=O)c1cnc2cncc(-c3ccc(C(F)(F)F)cc3)c2n1)C(C)(C)O (stereo not drawn) [Example 6, N-(3-Hydroxy-3-methylbutan-2-yl)-8-(4-(trifluoromethyl)phenyl)pyrido[4,3-b]pyrazine-2-carboxamide] | 0.38
18 | Cc1ccc(-c2cncc3ncc(C(=O)NC(C)C(C)(C)O)nc23)cn1 (stereo not drawn) [Example 51, N-(3-Hydroxy-3-methylbutan-2-yl)-8-(6-methylpyridin-3-yl)pyrido[4,3-b]pyrazine-2-carboxamide] | 0.08

Row | Compound | EC (150% of control) [µM]
19 | O=C(c1cnc2cncc(-c3ccc(Cl)cc3)c2n1)N1CCC(O)C1 (stereo not drawn) [Example 30, (8-(4-Chlorophenyl)pyrido[4,3-b]pyrazin-2-yl)(3-hydroxypyrrolidin-1-yl)methanone] | 0.69
20 | NC(=O)c1cnc2cncc(-c3cc(F)c(F)c(F)c3)c2n1 [Example 15, 8-(3,4,5-Trifluorophenyl)pyrido[4,3-b]pyrazine-2-carboxamide] | 0.55
21 | O=C(c1cnc2cncc(-c3ccc(C(F)(F)F)cc3)c2n1)N1CCC(O)C1 (stereo not drawn) [Example 28, (3-Hydroxypyrrolidin-1-yl)(8-(4-(trifluoromethyl)phenyl)pyrido[4,3-b]pyrazin-2-yl)methanone] | 0.29
22 | O=C(c1cnc2cncc(-c3cccc(OC(F)(F)F)c3)c2n1)N1CCC(O)C1 (stereo not drawn) [Example 41, (3-Hydroxypyrrolidin-1-yl)(8-(3-(trifluoromethoxy)phenyl)pyrido[4,3-b]pyrazin-2-yl)methanone] | 0.6
23 | CC(NC(=O)c1cnc2cncc(-c3cc(F)c(F)c(F)c3)c2n1)C(C)(C)O (stereo not drawn) [Example 47, N-(3-Hydroxy-3-methylbutan-2-yl)-8-(3,4,5-trifluorophenyl)pyrido[4,3-b]pyrazine-2-carboxamide] | 0.03
24 | CC(NC(=O)c1cnc2cncc(-c3ccc(Cl)cc3Cl)c2n1)C(C)(C)O (stereo not drawn) [Example 36, 8-(2,4-Dichlorophenyl)-N-(3-hydroxy-3-methylbutan-2-yl)pyrido[4,3-b]pyrazine-2-carboxamide] | 1.5
25 | O=C(c1cnc2cncc(-c3ccc(Cl)cc3)c2n1)N1CCOCC1 [Example 9, (8-(4-Chlorophenyl)pyrido[4,3-b]pyrazin-2-yl)(morpholino)methanone] | 0.65
26 | O=C(c1cnc2cncc(-c3ccc(C(F)(F)F)cc3)c2n1)N1CCS(=O)(=O)CC1 [Example 33, (1,1-Dioxo-1,4-thiazinan-4-yl)-[8-[4-(trifluoromethyl)phenyl]pyrido[3,4-b]pyrazin-2-yl]methanone] | 1.65
27 | O=C(c1cnc2cncc(-c3ccc(C(F)(F)F)cc3)c2n1)N1CCOCC1 [Example 10, Morpholino(8-(4-(trifluoromethyl)phenyl)pyrido[4,3-b]pyrazin-2-yl)methanone] | 2.96
28 | NC(=O)c1cnc2cncc(-c3ccc(Cl)cc3)c2n1 [Example 1, 8-(4-Chlorophenyl)pyrido[4,3-b]pyrazine-2-carboxamide] | 0.21
29 | N#CC1(NC(=O)c2cnc3cncc(-c4ccc(Cl)cc4)c3n2)CC1 [Example 7, 8-(4-Chlorophenyl)-N-(1-cyanocyclopropyl)pyrido[4,3-b]pyrazine-2-carboxamide] | 0.39
30 | O=C(c1cnc2cncc(-c3ccc(C(F)(F)F)c(F)c3)c2n1)N1CCC(O)C1 (stereo not drawn) [Example 52, (8-(3-Fluoro-4-(trifluoromethyl)phenyl)pyrido[4,3-b]pyrazin-2-yl)(3-hydroxypyrrolidin-1-yl)methanone] | 0.07
31 | O=C(NCc1ccccc1)c1cnc2cncc(-c3ccc(C(F)(F)F)cc3)c2n1 [Example 11, N-Benzyl-8-(4-(trifluoromethyl)phenyl)pyrido[4,3-b]pyrazine-2-carboxamide] | 0.41
32 | CC(NC(=O)c1cnc2cncc(-c3ccc(Cl)cc3)c2n1)C(C)(C)O (stereo not drawn) [Example 5, 8-(4-Chlorophenyl)-N-(3-hydroxy-3-methylbutan-2-yl)pyrido[4,3-b]pyrazine-2-carboxamide] | 0.89
33 | NC(=O)c1cnc2cncc(-c3cccc(C(F)(F)F)c3)c2n1 [Example 26, 8-(3-(Trifluoromethyl)phenyl)pyrido[4,3-b]pyrazine-2-carboxamide] | 0.43
34 | NC(=O)c1cnc2cncc(C3=CCOCC3)c2n1 [Example 25, 8-(3,6-Dihydro-2H-pyran-4-yl)pyrido[4,3-b]pyrazine-2-carboxamide] | 0.66
35 | NC(=O)c1cnc2cncc(N3CCC(F)(F)CC3)c2n1 [Example 42, 8-(4,4-Difluoropiperidin-1-yl)pyrido[4,3-b]pyrazine-2-carboxamide] | 0.09
36 | O=C(c1cnc2cncc(-c3cc(C(F)(F)F)ccc3F)c2n1)N1CCC(O)C1 (stereo not drawn) [Example 40, (8-(2-Fluoro-5-(trifluoromethyl)phenyl)pyrido[4,3-b]pyrazin-2-yl)(3-hydroxypyrrolidin-1-yl)methanone] | 0.93
